Results published in ChEMBL document CHEMBL1132661, “Synthesis and preliminary biological evaluation of new alpha-amino amide anticonvulsants incorporating a dextromethorphan moiety” (Bioorg Med Chem Lett, 1999).

Assays:
[1] = Therapeutic index TI (ED50 rotorod/MES) of the compound; conditions: mouse; read-out: TI
Mus musculus [2] = assay: Anticonvulsant activity in mice by peroral administration measured at 60 mins before maximum electroshock seizure induction; type: functional; conditions: po
[3] = molecular target: T1, Sodium channel alpha subunits; brain (Types I, II, III) (Rattus norvegicus, UniProt P04775+P04774+P08104); assay: Binding of [3H]saxitoxin (STX) to rat brain sodium channel
Mus musculus [4] = assay: Psychomotor side-effect in mice by rotarod test by intraperitoneal administration at 60 mins; type: functional; conditions: ip, 1 h
[5] = molecular target: T1, Sodium channel alpha subunits; brain (Types I, II, III); assay: Binding of [3H]batrachotoxin (BTX) to rat brain sodium channel
Mus musculus [6] = assay: Anticonvulsant activity in mice by intraperitoneal administration measured at 30 mins before maximum electroshock seizure induction; type: functional; conditions: ip
[7] = Significant mortality was observed in mice caused by the compound; type: ADME; conditions: mouse, in vivo

Row | SMILES | selectivity ratio [1] | ED50 (Mus musculus [2]) [mg/kg] | IC50 [3] [µM] | ED50 (Mus musculus [4]) [mg/kg] | IC50 [5] [µM] | ED50 (Mus musculus [6]) [mg/kg] | LD50 [7] [mg/kg]
1 | C[C@H](C(N)=O)N1CCC23CCCCC2[C@@H]1Cc1ccc(OCc2cccc(F)c2)cc13 (stereo partly specified) | 10 | 50.8 | > 300 | 176 | 2.6 | 18.1 | 
2 | CNC(=O)[C@@H](C)N1CCC23CCCCC2[C@@H]1Cc1ccc(OCc2cccc(F)c2)cc13 (stereo partly specified) | 4 |  | > 300 | 152 | 5.3 | 41.6 | 
3 | COc1ccc2c(c1)C13CCCCC1C(C2)N(C)CC3 (stereo not drawn) [RACEMETHORPHAN] |  | 12.9 | > 300 |  | 1.3 | 10.1 | 234
4 | CS(=O)(=O)O.C[C@H](NCc1ccc(OCc2cccc(F)c2)cc1)C(N)=O [SAFINAMIDE MESYLATE] | 78 | 8 | > 300 | 626 |  | 6.9 | 
